# Assay results: patent publication US8765773B2, “Substituted hydroxamic acids and uses thereof” (Millennium Pharmaceuticals, Inc., priority 2010, dated 2014)
# Molecular target: T1, purified human HDAC6 (Homo sapiens, UniProt Q9UBN7)
# T1 construct: purchased BPS Bioscience 5006
# T1 sequence (Q9UBN7 1-1215): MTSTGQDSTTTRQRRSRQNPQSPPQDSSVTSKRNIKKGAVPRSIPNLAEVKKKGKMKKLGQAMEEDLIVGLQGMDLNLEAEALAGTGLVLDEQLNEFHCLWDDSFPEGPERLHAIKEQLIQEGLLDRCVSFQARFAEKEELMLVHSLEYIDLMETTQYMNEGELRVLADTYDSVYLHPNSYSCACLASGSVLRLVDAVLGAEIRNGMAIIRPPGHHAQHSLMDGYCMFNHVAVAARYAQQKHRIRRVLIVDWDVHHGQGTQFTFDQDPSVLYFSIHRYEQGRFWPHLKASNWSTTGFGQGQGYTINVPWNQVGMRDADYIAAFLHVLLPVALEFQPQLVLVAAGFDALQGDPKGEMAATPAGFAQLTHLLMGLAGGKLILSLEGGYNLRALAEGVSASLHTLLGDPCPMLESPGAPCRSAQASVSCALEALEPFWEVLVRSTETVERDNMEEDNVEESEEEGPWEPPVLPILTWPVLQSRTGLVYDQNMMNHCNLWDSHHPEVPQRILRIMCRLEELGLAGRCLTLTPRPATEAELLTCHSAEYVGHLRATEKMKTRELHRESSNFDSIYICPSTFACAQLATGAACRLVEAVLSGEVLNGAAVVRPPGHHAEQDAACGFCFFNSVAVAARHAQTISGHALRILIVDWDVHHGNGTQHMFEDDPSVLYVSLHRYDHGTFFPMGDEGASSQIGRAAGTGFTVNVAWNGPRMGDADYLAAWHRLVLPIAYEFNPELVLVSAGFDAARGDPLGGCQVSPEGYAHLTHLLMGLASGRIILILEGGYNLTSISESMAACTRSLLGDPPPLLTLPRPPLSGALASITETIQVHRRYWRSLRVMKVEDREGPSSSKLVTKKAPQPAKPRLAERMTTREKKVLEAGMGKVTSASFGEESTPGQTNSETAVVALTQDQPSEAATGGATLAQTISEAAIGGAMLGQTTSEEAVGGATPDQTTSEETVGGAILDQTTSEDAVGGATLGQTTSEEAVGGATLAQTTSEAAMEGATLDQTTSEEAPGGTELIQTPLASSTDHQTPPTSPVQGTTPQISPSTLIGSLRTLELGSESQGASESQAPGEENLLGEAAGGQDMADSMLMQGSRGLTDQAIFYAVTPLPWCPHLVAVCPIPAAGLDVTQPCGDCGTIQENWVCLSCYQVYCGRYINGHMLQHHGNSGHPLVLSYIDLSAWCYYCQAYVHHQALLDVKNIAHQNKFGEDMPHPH
# Test: HDAC6 Enzyme Assay
# Format: biochemical
# Conditions: compound concentration 0.37 μM, read-out: Percent Inhibition
# Procedure: To measure the inhibition of HDAC6 activity, purified human HDAC6 (BPS Bioscience; Cat. No. 5006) is incubated with substrate Ac-Arg-Gly-Lys(Ac)-AMC peptide (Bachem Biosciences; Cat. No. I-1925) for 1 hour at 30° C. in the presence of test compounds or vehicle DMSO control. The reaction is stopped with the HDAC inhibitor trichostatin A (Sigma; Cat. No. T8552) and the amount of Arg-Gly-Lys-AMC generated is quantitated by digestion with trypsin (Sigma; Cat. No. T1426) and subsequent measurement of the amount of AMC released using a fluorescent plate reader (Pherastar; BMG Technologies) set at Ex 340 nm and Em 460 nm. Concentration response curves are generated by calculating the fluorescence increase in test compound-treated samples relative to DMSO-treated controls, and percentage inhibition values at a single concentration or enzyme inhibition (IC50) values are determined from those curves. One skilled in the art will appreciate that the values generated either as percentage inhibition at a single concentration or IC50 values are subject to experimental variation.
row,inhibition at 0.37 µM,Structure (SMILES)
1,94.9%,"O=C(NO)c1ccc2c(=O)[nH]c(CCc3ccccc3)nc2c1 [Compound I-408, N-hydroxy-4-oxo-2-(2-phenylethyl)-3,4-dihydroquinazoline-7-carboxamide]"
2,72.5%,"O=C(NO)c1ccc2ncn(CCc3cccc(-c4ccc(C(F)(F)F)cc4)c3)c(=O)c2c1 [Compound I-295, N-hydroxy-4-oxo-3-{2-[4′-(trifluoromethyl)biphenyl-3-yl]ethyl}-3,4-dihydroquinazoline-6-carboxamide]"
3,86.7%,"CC(=O)Nc1ccc(-c2cccc(Cn3cnc4ccc(C(=O)NO)cc4c3=O)c2)cc1 [Compound I-80, 3-{[4′-(acetylamino)biphenyl-3-yl]methyl}-N-hydroxy-4-oxo-3,4-dihydroquinazoline-6-carboxamide]"
4,96.3%,"O=C(NO)c1ccc2ccn(-c3ccnc(NC(=O)C4CC4)c3)c(=O)c2c1 [Compound I-397, 2-{2-[(cyclopropylcarbonyl)amino]pyridin-4-yl}-N-hydroxy-1-oxo-1,2-dihydroisoquinoline-7-carboxamide]"
5,79.9%,"Cn1c(-c2nc3cc(C(=O)NO)ccc3c(=O)[nH]2)cc2ccccc21 [Compound I-415, N-hydroxy-2-(1-methyl-1H-indol-2-yl)-4-oxo-3,4-dihydroquinazoline-7-carboxamide]"
6,83.6%,"CC(C)c1ccc(-c2cccc(Cn3cnc4ccc(C(=O)NO)cc4c3=O)c2)cc1 [Compound I-32, N-hydroxy-3-[(4′-isopropylbiphenyl-3-yl)methyl]-4-oxo-3,4-dihydroquinazoline-6-carboxamide]"
7,90.9%,"Cc1cccc(-c2cccc(CCn3cnc4ccc(C(=O)NO)cc4c3=O)c2)c1 [Compound I-304, N-hydroxy-3-[2-(3′-methylbiphenyl-3-yl)ethyl]-4-oxo-3,4-dihydroquinazoline-6-carboxamide]"

# Same assay, conditions: compound concentration 0.412 μM, read-out: Percent Inhibition
row,Structure (SMILES),inhibition at 0.412 µM
1,"O=C(NO)c1ccc2ccn(Cc3c(F)c(F)c(F)c(F)c3F)c(=O)c2c1 [Compound I-65, N-hydroxy-1-oxo-2-(pentafluorobenzyl)-1,2-dihydroisoquinoline-7-carboxamide]",93%
2,"O=C(NO)c1ccc2ncn(Cc3cccc(OC(F)(F)F)c3)c(=O)c2c1 [Compound I-55, N-hydroxy-4-oxo-3-[3-(trifluoromethoxy)benzyl]-3,4-dihydroquinazoline-6-carboxamide]",93.9%
3,"O=C(NO)c1ccc2ccn(CCCOc3cccc(-c4csnn4)c3)c(=O)c2c1 [Compound I-72, N-hydroxy-1-oxo-2-{3-[3-(1,2,3-thiadiazol-4-yl)phenoxy]propyl}-1,2-dihydroisoquinoline-7-carboxamide]",94.1%
4,"CC(C)n1cnc2cc(C(=O)NO)ccc2c1=O [Compound I-256, N-hydroxy-3-isopropyl-4-oxo-3,4-dihydroquinazoline-7-carboxamide]",72%
5,"COc1ccccc1OCc1nc2cc(C(=O)NO)ccc2c(=O)[nH]1 [Compound I-248, N-hydroxy-2-[(2-methoxyphenoxy)methyl]-4-oxo-3,4-dihydroquinazoline-7-carboxamide]",90%
6,"O=C(NO)c1ccc2c(=O)n(Cc3ccc(C(F)(F)F)cc3)c(-c3ccccc3)nc2c1 [Compound I-73, N-hydroxy-4-oxo-2-phenyl-3-[4-(trifluoromethyl)benzyl]-3,4-dihydroquinazoline-7-carboxamide]",87.7%
7,"O=C(NO)c1ccc2c(=O)n(-c3ccc(Cl)cc3)c(=O)[nH]c2c1 [Compound I-280, 3-(4-chlorophenyl)-N-hydroxy-2,4-dioxo-1,2,3,4-tetrahydroquinazoline-7-carboxamide]",20.9%
8,"COc1ccc(N(CCn2ccc3ccc(C(=O)NO)cc3c2=O)Cc2ccc(Cl)cc2)cc1 [Compound I-229, 2-{2-[(4-chlorobenzyl)(4-methoxyphenyl)amino]ethyl}-N-hydroxy-1-oxo-1,2-dihydroisoquinoline-7-carboxamide]",83.2%
9,"CC(C)(C)OC(=O)N1CCC(C)(C(=O)Nc2cccc(Cn3ccc4ccc(C(=O)NO)cc4c3=O)c2)CC1 [Compound I-93, tert-butyl 4-{[(3-{[7-[(hydroxyamino)carbonyl]-1-oxoisoquinolin-2(1H)-yl]methyl}phenyl)amino]carbonyl}-4-methylpiperidine-1-carboxylate]",90.1%
10,"O=C(NO)c1ccc2ccn(CCOc3ccc(OCc4ccccc4)cc3)c(=O)c2c1 [Compound I-270, 2-{2-[4-(benzyloxy)phenoxy]ethyl}-N-hydroxy-1-oxo-1,2-dihydroisoquinoline-7-carboxamide]",83.4%
11,"O=C(NO)c1ccc2ncn(Cc3cccc(-c4ccncc4)c3)c(=O)c2c1 [Compound I-128, N-hydroxy-4-oxo-3-(3-pyridin-4-ylbenzyl)-3,4-dihydroquinazoline-6-carboxamide]",95.9%
12,"O=C(NO)c1ccc2c(=O)n(Cc3cccc(Cl)c3)cnc2c1 [Compound I-43, 3-(3-chlorobenzyl)-N-hydroxy-4-oxo-3,4-dihydroquinazoline-7-carboxamide]",96.1%
13,"O=C(NO)c1ccc2ccn(CCNS(=O)(=O)c3ccc(Cl)cc3)c(=O)c2c1 [Compound I-213, 2-(2-{[(4-chlorophenyl)sulfonyl]amino}ethyl)-N-hydroxy-1-oxo-1,2-dihydroisoquinoline-7-carboxamide]",94%

# Further lines, results first:
row,inhibition at 0.412 µM,Structure (SMILES)
1,87.5%,"O=C(NO)c1ccc2ccn(CC3CC3)c(=O)c2c1 [Compound I-261, 2-(cyclopropylmethyl)-N-hydroxy-1-oxo-1,2-dihydroisoquinoline-7-carboxamide]"
2,94.6%,"O=C(NO)c1ccc2ccn(Cc3ccccc3F)c(=O)c2c1 [Compound I-122, 2-(2-fluorobenzyl)-N-hydroxy-1-oxo-1,2-dihydroisoquinoline-7-carboxamide]"
3,96.1%,"CS(=O)(=O)c1ccccc1OCCn1ccc2ccc(C(=O)NO)cc2c1=O [Compound I-167, N-hydroxy-2-{2-[2-(methylsulfonyl)phenoxy]ethyl}-1-oxo-1,2-dihydroisoquinoline-7-carboxamide]"
4,95.9%,"O=C(NO)c1ccc2ccn(CCOc3ccccc3C(F)(F)F)c(=O)c2c1 [Compound I-175, N-hydroxy-1-oxo-2-{2-[2-(trifluoromethyl)phenoxy]ethyl}-1,2-dihydroisoquinoline-7-carboxamide]"
5,87.9%,"O=C(NO)c1ccc2ccn(Cc3ccccn3)c(=O)c2c1 [Compound I-279, N-hydroxy-1-oxo-2-(pyridin-2-ylmethyl)-1,2-dihydroisoquinoline-7-carboxamide]"
6,94.8%,"Cc1ccccc1Cn1ccc2ccc(C(=O)NO)cc2c1=O [Compound I-157, N-hydroxy-2-(2-methylbenzyl)-1-oxo-1,2-dihydroisoquinoline-7-carboxamide]"
7,93.2%,"O=C(NO)c1ccc2ncn(Cc3ccccc3Cl)c(=O)c2c1 [Compound I-63, 3-(2-chlorobenzyl)-N-hydroxy-4-oxo-3,4-dihydroquinazoline-6-carboxamide]"
8,97.3%,"Cc1ccccc1OCCn1ccc2ccc(C(=O)NO)cc2c1=O [Compound I-149, N-hydroxy-2-[2-(2-methylphenoxy)ethyl]-1-oxo-1,2-dihydroisoquinoline-7-carboxamide]"
9,79.1%,"COc1ccc(NCCn2ccc3ccc(C(=O)NO)cc3c2=O)cc1 [Compound I-97, N-hydroxy-2-{2-[(4-methoxyphenyl)amino]ethyl}-1-oxo-1,2-dihydroisoquinoline-7-carboxamide]"
